Columns and labels:
[1] = test system: BEAS-2B human bronchial epithelial cell line; assay: MTT assay, cytotoxicity of ketone compounds in BEAS-2B cell line; type: cell-based
Procedure: BEAS-2B (Korean Cell Line Bank), a human bronchial epithelial cell line, was cultured using RPMI 1640 medium (Gibco, USA) supplemented with 10% FBS until the cells grew to about a confluence of 70 to 80% in a 100 mm dish.
Among ketones belonging to mVOCs (microbial volatile organic compounds) exposed to the environment, acetone, 2-butanone, 2-pentanone, 2-hexanone and 2-heptanone were selected, and the chemicals were dissolved in filtered distilled water (DW). A vehicle concentration was set to 0.1% or less in all experiments.
MTT assay using a BEAS-2B cell line was performed in accordance with the method of Mossman et al. (J. Immunol. Methods, 65, 55-63, 1983).
Specifically, the cells were seeded at a density of 3.5×10^4 cells/well in a 24-well plate and treated with the five ketone compounds dissolved in filtered distilled water, prepared in Example 1-2. After 48 hours, the result was mixed with 5 mg/ml of MTT (3-4,5-dimethylthiazol-2,5-diphenyltetrazolium bromide), added to a tube and incubated at 37° C. for 3 hours. Then, the medium was removed, the formed formazan crystal was dissolved in 500 μl of DMSO, and then 100 μl of the solution was transferred to a 96-well plate to measure an OD (optical density) value at 540 nm.

[2] = test system: BEAS-2B human bronchial epithelial cell line; assay: Gene expression change by high-throughput RNA sequencing (NextSeq 500) in ketone-exposed BEAS-2B cells; type: cell-based
Procedure: RNA was extracted from cell samples of ketone-exposed and non-ketone-exposed groups using a TRIzol reagent (Life Technologies, USA) in accordance with the manufacturer's directions to isolate total RNA and the total RNA was purified using a RNeasy mini kit (Qiagen, USA). The concentration of each total RNA sample was determined by a ND-2000 spectrophotometer (Thermo Inc., DE, USA) as a spectrophotometer and Agilent 2100 Bioanalyzer (Agilent Technologies, USA).
The establishment of libraries from the total RNA obtained in Example 2-1 in the experimental group and the normal control group exposed to the ketones was carried out using a QuantSeq 3′ mRNA-Seq Library Prep Kit (Lexogen, Inc., Austria) in accordance with the manufacturer's directions. 500 ng of the total RNA was hybridized with an oligo-dT primer including an Illumina-compatible sequence at the 5′ end of RNA, followed by reverse transcription. After degradation of the RNA template, a second strand was synthesized using a random primer including an Illumina-compatible linker sequence at the 5′ end thereof. Double-stranded libraries were purified using magnetic beads to remove all reaction components. The library was amplified in order to add the entire adapter sequence required for cluster production, and the completed cDNA library was purified from the PCR components.
Sequencing was performed by high-throughput sequencing as single-end 75 sequencing using a NextSeq 500 (IIlumina, Inc., USA). Read count (RC) data was processed based on the quantile normalization method using EdgeR in R (R development Core Team, 2016) using Bioconductor (Gentleman et al., 2004). Gene classification was based on searches performed on DAVID (http://david.abcc.ncifcrf.gov/) and the Medline database (http://www.ncbi.nlm.nih.gov/).
The extracted data were analyzed through normalization using Agilent GeneSpring GX 12.6.1 (Agilent technologies, CA, USA) to analyze the expression pattern of each gene.

[3] = IC5 conc.: Acetone 5.38, 2-Butanone 22.27, 2-Pentanone 5.24, 2-Hexanone 14.82, 2-Heptanone 5.05 mM
[4] = IC20 conc.: Acetone 71.90, 2-Butanone 106.21, 2-Pentanone 39.38, 2-Hexanone 52.51, 2-Heptanone 20.22 mM

## CCC(C)=O [2-Butanone, 2-butanone]
[1]; BEAS-2B, 48 hours, MTT
  concentration (105) providing a survival rate (viability) of 95%: 22270 µM
  concentration (1020) providing a survival rate (viability) of 80%: 106210 µM
[2]; [3]
  Fold change ADRA2A (NM_000681): 0.185
  Fold change ATRNL1 (NR_074088): 3.234
  Fold change C12orf79 (NR_046159): 0.216
  Fold change C14orf80 (NR_046159): 0.356
  Fold change CALML3 (NM_001286399): 0.356
  Fold change CCDC184 (NM_001013635): 2.379
  Fold change CD37 (NM_001040031): 3.286
  Fold change CDHR1 (NM_001171971): 0.470
  Fold change CHL1 (NM_001253387): 0.274
  Fold change COL4A3 (NM_000091): 2.264
  Fold change CRLF2 (NM_022148): 0.359
  Fold change CSF3R (NM_172313): 0.356
  Fold change DNMBP-AS1 (NR_024130): 11.453
  Fold change EGR1 (NM_001964): 0.422
  Fold change GNA14 (NM_004297): 3.512
  Fold change LOC728752 (NR_036504): 3.506
  Fold change PAX8 (NM_003466): 6.636
  Fold change PRRT3-AS1 (NR_046734): 2.207
  Fold change RBP3 (NM_002900): 0.356
  Fold change SEPT14 (NM_207366): 0.458
  Fold change SERPINA12 (NM_001304461): 0.356
  Fold change SLC13A4 (NM_012450): 7.697
  Fold change SPOCK2 (NM_001244950): 3.020
  Fold change TSPAN1 (NM_005727): 2.540
  Fold change USP12-AB1 (NR_046647): 3.499
  Fold change VIPR†-AS1 (NR_046654): 0.356
  Fold change XIRP1 (NM_001198621): 0.356
  Fold change ZFP69B (NM_023070): 4.676
  Fold change ZNF432 (NM_014650): 2.326
  Fold change ZNF487 (NR_026693): 0.356
[2]; [4]
  Fold change ADRA2A (NM_000681): 0.184
  Fold change ATRNL1 (NR_074088): 2.330
  Fold change C12orf79 (NR_046159): 0.216
  Fold change C14orf80 (NR_046159): 0.356
  Fold change CALML3 (NM_001286399): 0.356
  Fold change CCDC184 (NM_001013635): 6.647
  Fold change CD37 (NM_001040031): 2.647
  Fold change CDHR1 (NM_001171971): 0.222
  Fold change CHL1 (NM_001253387): 0.268
  Fold change COL4A3 (NM_000091): 3.577
  Fold change CRLF2 (NM_022148): 0.359
  Fold change CSF3R (NM_172313): 0.356
  Fold change DNMBP-AS1 (NR_024130): 12.732
  Fold change EGR1 (NM_001964): 0.404
  Fold change GNA14 (NM_004297): 5.582
  Fold change LOC728752 (NR_036504): 6.647
  Fold change PAX8 (NM_003466): 2.233
  Fold change PRRT3-AS1 (NR_046734): 2.147
  Fold change RBP3 (NM_002900): 0.356
  Fold change SEPT14 (NM_207366): 0.217
  Fold change SERPINA12 (NM_001304461): 0.356
  Fold change SLC13A4 (NM_012450): 8.571
  Fold change SPOCK2 (NM_001244950): 8.426
  Fold change TSPAN1 (NM_005727): 2.466
  Fold change USP12-AB1 (NR_046647): 5.570
  Fold change VIPR†-AS1 (NR_046654): 0.356
  Fold change XIRP1 (NM_001198621): 0.356
  Fold change ZFP69B (NM_023070): 2.942
  Fold change ZNF432 (NM_014650): 6.342
  Fold change ZNF487 (NR_026693): 0.356

## CCCCCC(C)=O [2-Heptanone, 2-heptanone]
[1]; human, 48 h
  concentration (105) providing a survival rate (viability) of 95%: 5050 µM
  concentration (1020) providing a survival rate (viability) of 80%: 20220 µM
[2]; [3]
  Fold change ADRA2A (NM_000681): 0.321
  Fold change ATRNL1 (NR_074088): 3.365
  Fold change C12orf79 (NR_046159): 0.213
  Fold change C14orf80 (NR_046159): 0.354
  Fold change CALML3 (NM_001286399): 0.354
  Fold change CCDC184 (NM_001013635): 4.098
  Fold change CD37 (NM_001040031): 5.216
  Fold change CDHR1 (NM_001171971): 0.386
  Fold change CHL1 (NM_001253387): 0.122
  Fold change COL4A3 (NM_000091): 4.774
  Fold change CRLF2 (NM_022148): 0.355
  Fold change CSF3R (NM_172313): 0.354
  Fold change DNMBP-AS1 (NR_024130): 2.035
  Fold change EGR1 (NM_001964): 0.410
  Fold change GNA14 (NM_004297): 4.971
  Fold change LOC728752 (NR_036504): 5.873
  Fold change PAX8 (NM_003466): 4.275
  Fold change PRRT3-AS1 (NR_046734): 2.285
  Fold change RBP3 (NM_002900): 0.354
  Fold change SEPT14 (NM_207366): 0.214
  Fold change SERPINA12 (NM_001304461): 0.354
  Fold change SLC13A4 (NM_012450): 4.638
  Fold change SPOCK2 (NM_001244950): 4.800
  Fold change TSPAN1 (NM_005727): 4.660
  Fold change USP12-AB1 (NR_046647): 11.319
  Fold change VIPR†-AS1 (NR_046654): 0.354
  Fold change XIRP1 (NM_001198621): 0.354
  Fold change ZFP69B (NM_023070): 3.346
  Fold change ZNF432 (NM_014650): 3.207
  Fold change ZNF487 (NR_026693): 0.354
[2]; [4]
  Fold change ADRA2A (NM_000681): 0.179
  Fold change ATRNL1 (NR_074088): 3.204
  Fold change C12orf79 (NR_046159): 0.213
  Fold change C14orf80 (NR_046159): 0.354
  Fold change CALML3 (NM_001286399): 0.354
  Fold change CCDC184 (NM_001013635): 6.381
  Fold change CD37 (NM_001040031): 3.227
  Fold change CDHR1 (NM_001171971): 0.216
  Fold change CHL1 (NM_001253387): 0.335
  Fold change COL4A3 (NM_000091): 8.193
  Fold change CRLF2 (NM_022148): 0.355
  Fold change CSF3R (NM_172313): 0.354
  Fold change DNMBP-AS1 (NR_024130): 11.098
  Fold change EGR1 (NM_001964): 0.381
  Fold change GNA14 (NM_004297): 4.498
  Fold change LOC728752 (NR_036504): 5.440
  Fold change PAX8 (NM_003466): 4.602
  Fold change PRRT3-AS1 (NR_046734): 2.525
  Fold change RBP3 (NM_002900): 0.354
  Fold change SEPT14 (NM_207366): 0.214
  Fold change SERPINA12 (NM_001304461): 0.354
  Fold change SLC13A4 (NM_012450): 11.825
  Fold change SPOCK2 (NM_001244950): 2.838
  Fold change TSPAN1 (NM_005727): 3.058
  Fold change USP12-AB1 (NR_046647): 4.509
  Fold change VIPR†-AS1 (NR_046654): 0.354
  Fold change XIRP1 (NM_001198621): 0.354
  Fold change ZFP69B (NM_023070): 2.674
  Fold change ZNF432 (NM_014650): 4.845
  Fold change ZNF487 (NR_026693): 0.354
